Data reported in patent publication US9981975B2, “Pyrrolotriazine compounds as tam inhibitors” (Incyte Corporation, priority 2016, dated 2018).
pIC50: −log10 of the molar value.

Experiments:
Type in all cases: biochemical
phosphor-Axl = phosphor-Axl (Homo sapiens (Human), UniProt P30530); test: TAM Enzymatic Assay (HTRF), Axl; conditions: recombinant autophosphorylated Axl, 60 min, room temperature
c-Mer = c-Mer (Homo sapiens (Human), UniProt Q12866); test: TAM Enzymatic Assay (HTRF), Mer; conditions: 60 min, room temperature
c-Mer, sequence (Q12866 21-999): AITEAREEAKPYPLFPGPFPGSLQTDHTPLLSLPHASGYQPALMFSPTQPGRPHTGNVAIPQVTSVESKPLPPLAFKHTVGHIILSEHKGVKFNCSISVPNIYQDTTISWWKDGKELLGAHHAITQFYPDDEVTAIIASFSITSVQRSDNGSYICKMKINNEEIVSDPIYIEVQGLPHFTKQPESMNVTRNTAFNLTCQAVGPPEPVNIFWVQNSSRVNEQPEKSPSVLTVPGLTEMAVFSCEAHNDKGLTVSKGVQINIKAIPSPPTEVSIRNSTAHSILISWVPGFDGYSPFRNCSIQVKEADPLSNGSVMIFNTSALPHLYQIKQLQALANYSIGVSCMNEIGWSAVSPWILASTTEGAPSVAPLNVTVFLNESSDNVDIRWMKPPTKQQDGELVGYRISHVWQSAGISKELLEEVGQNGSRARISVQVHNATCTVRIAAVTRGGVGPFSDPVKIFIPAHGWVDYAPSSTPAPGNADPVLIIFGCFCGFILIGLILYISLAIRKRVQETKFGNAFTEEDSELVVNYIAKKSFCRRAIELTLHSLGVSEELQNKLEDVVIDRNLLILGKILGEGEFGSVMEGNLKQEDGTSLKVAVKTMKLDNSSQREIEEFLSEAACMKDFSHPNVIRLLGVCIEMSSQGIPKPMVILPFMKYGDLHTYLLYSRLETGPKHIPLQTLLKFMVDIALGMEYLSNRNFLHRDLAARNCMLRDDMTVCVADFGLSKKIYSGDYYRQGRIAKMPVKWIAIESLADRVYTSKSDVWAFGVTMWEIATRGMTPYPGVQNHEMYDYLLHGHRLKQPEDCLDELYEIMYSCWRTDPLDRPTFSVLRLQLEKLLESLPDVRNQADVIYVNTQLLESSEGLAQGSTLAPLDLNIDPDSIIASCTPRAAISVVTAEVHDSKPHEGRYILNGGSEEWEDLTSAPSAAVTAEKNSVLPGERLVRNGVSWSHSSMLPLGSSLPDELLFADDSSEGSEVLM
In short: (§1)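 HTRF kinase assay in 50 mM HEPES pH 7.5, 10 mM MgCl2, 1 mM EGTA, 0.01% NP-40, 2 mM DTT; compound in DMSO pre-dispensed, enzyme added, reaction started with substrate, 60 min at room temperature in the dark.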

Tyro3 = Tyro3 (Homo sapiens (Human), UniProt Q06418); test: TAM Enzymatic Assay (HTRF), Tyro3; conditions: Tyro3, 60 min, room temperature
Tyro3, sequence (Q06418 41-890): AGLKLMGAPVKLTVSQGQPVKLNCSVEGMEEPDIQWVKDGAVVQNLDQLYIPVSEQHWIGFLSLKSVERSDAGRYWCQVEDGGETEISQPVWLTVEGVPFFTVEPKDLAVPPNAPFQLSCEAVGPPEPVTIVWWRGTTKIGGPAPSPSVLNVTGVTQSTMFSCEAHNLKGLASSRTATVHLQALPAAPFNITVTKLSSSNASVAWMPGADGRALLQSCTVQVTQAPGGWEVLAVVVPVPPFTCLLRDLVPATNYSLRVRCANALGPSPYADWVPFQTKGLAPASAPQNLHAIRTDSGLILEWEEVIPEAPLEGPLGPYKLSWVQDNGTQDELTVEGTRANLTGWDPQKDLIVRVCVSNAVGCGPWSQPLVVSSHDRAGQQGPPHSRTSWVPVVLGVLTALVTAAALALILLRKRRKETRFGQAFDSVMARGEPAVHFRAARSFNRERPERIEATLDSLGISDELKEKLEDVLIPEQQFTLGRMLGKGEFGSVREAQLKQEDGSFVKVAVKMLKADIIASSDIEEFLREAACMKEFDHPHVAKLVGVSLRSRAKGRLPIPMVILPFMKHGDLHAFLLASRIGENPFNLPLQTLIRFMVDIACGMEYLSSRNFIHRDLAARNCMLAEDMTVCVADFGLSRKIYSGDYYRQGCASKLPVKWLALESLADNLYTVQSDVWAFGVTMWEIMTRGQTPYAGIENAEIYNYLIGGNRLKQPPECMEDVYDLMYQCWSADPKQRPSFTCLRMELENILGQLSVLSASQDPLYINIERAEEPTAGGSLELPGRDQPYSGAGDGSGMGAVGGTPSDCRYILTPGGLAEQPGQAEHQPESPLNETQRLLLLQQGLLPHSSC
In short: as §1

phosphor-Axl, sequence (P30530 26-894): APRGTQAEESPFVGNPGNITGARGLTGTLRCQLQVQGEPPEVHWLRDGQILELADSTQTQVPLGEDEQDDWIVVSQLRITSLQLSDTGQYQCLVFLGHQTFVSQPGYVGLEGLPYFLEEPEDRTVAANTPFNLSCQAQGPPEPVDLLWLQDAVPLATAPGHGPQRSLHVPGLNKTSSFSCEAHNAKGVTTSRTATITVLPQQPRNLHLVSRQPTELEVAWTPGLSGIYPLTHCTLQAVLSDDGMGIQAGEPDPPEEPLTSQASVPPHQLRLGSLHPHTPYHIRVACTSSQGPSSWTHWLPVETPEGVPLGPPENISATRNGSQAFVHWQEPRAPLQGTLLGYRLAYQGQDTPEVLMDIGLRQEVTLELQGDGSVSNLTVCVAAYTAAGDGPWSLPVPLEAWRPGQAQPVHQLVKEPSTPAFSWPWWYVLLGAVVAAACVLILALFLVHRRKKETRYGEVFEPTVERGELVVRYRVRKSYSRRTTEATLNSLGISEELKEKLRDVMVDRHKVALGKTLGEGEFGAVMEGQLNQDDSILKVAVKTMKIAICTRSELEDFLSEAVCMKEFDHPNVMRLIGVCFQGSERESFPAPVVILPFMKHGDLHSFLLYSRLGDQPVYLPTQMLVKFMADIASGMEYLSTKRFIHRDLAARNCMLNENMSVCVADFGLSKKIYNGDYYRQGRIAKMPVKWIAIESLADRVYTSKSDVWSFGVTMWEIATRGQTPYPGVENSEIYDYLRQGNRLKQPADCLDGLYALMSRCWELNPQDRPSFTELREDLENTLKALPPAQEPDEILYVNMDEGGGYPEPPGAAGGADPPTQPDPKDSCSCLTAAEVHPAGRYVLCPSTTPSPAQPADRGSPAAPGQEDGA

Structure (SMILES)	pIC50 (phosphor-Axl)	pIC50 (c-Mer)	pIC50 (Tyro3)
Cc1c(-c2ncco2)cc(C(=O)Nc2ccc(-c3cc(C4CCN(C(=O)C(C)C)CC4)n4ncnc(N)c34)cc2)c(=O)n1-c1ccccn1 [Example 126, N-(4-(4-Amino-7-(1-isobutyrylpiperidin-4-yl)pyrrolo[2,1-f][1,2,4]triazin-5-yl)phenyl)-6-methyl-5-(oxazol-2-yl)-2-oxo-2H-[1,2′-bipyridine]-3-carboxamide]	≥ 8.30	≥ 8.30	< 7.00
Cc1c(C(F)F)cc(C(=O)Nc2ccc(-c3cc(C4CCN(C(=O)C(C)C)CC4)n4ncnc(N)c34)cc2)c(=O)n1-c1ccccn1 [Example 127, N-(4-(4-Amino-7-(1-isobutyrylpiperidin-4-yl)pyrrolo[2,1-f][1,2,4]triazin-5-yl)phenyl)-5-(difluoromethyl)-6-methyl-2-oxo-2H-[1,2′-bipyridine]-3-carboxamide]	≥ 8.30	≥ 8.30	< 7.00
Cc1c(Cl)cc(C(=O)Nc2ccc(-c3cc(C4CCN(C(=O)C(C)C)CC4)n4ncnc(N)c34)cc2)c(=O)n1-c1cccnc1 [Example 131, N-(4-(4-amino-7-(1-isobutyrylpiperidin-4-yl)pyrrolo[2,1-f][1,2,4]triazin-5-yl)phenyl)-5-chloro-6-methyl-2-oxo-2H-[1,3′-bipyridine]-3-carboxamide]	≥ 8.30	≥ 8.30	< 7.00
Cc1c(-c2ccn(C)n2)cc(C(=O)Nc2ccc(-c3cc(C4CCN(C(=O)C(C)C)CC4)n4ncnc(N)c34)cc2)c(=O)n1-c1cccnc1 [Example 135, N-(4-(4-Amino-7-(1-isobutyrylpiperidin-4-yl)pyrrolo[2,1-f][1,2,4]triazin-5-yl)phenyl)-6-methyl-5-(1-methyl-1H-pyrazol-3-yl)-2-oxo-2H-[1,3′-bipyridine]-3-carboxamide]	≥ 8.30	≥ 8.30	< 7.00
Cc1c(-c2ccccn2)c(=O)c(C(=O)Nc2ccc(-c3cc(C4CCN(C(=O)C(C)C)CC4)n4ncnc(N)c34)cc2)cn1C1CC1 [Example 141, N-(4-(4-Amino-7-(1-isobutyrylpiperidin-4-yl)pyrrolo[2,1-f][1,2,4]triazin-5-yl)phenyl)-1′-cyclopropyl-2′-methyl-4′-oxo-1′,4′-dihydro-[2,3′-bipyridine]-5′-carboxamide]	≥ 8.30	≥ 8.30	< 7.00
Cc1c(-c2cccnc2)c(=O)c(C(=O)Nc2ccc(-c3cc(C4CCN(C(=O)C(C)C)CC4)n4ncnc(N)c34)cc2)cn1C1CC1 [Example 147, N-(4-(4-Amino-7-(1-isobutyrylpiperidin-4-yl)pyrrolo[1,2-f][1,2,4]triazin-5-yl)phenyl)-1-cyclopropyl-6-methyl-4-oxo-5-(pyridin-3-yl)-1,4-dihydropyridine-3-carboxamide]	≥ 8.30	≥ 8.30	< 7.00

The next lines start with the values.

pIC50 (phosphor-Axl)	pIC50 (c-Mer)	pIC50 (Tyro3)	Structure (SMILES)
≥ 8.30	≥ 8.30	< 7.00	Cc1c(Br)cc(C(=O)Nc2ccc(-c3cc(C4CCN(C(=O)C(C)C)CC4)n4ncnc(N)c34)cc2)c(=O)n1-c1cccnc1 [Example 130, N-(4-(4-Amino-7-(1-isobutyrylpiperidin-4-yl)pyrrolo[2,1-f][1,2,4]triazin-5-yl)phenyl)-5-bromo-6-methyl-2-oxo-2H-[1,3′-bipyridine]-3-carboxamide]
≥ 8.30	≥ 8.30	< 7.00	Cc1cc(C(=O)Nc2ccc(-c3cc(C4CCN(C(=O)C(C)C)CC4)n4ncnc(N)c34)cc2)c(=O)n(-c2cccnc2)c1C [Example 132, N-(4-(4-Amino-7-(1-isobutyrylpiperidin-4-yl)pyrrolo[2,1-f][1,2,4]triazin-5-yl)phenyl)-5,6-dimethyl-2-oxo-2H-[1,3′-bipyridine]-3-carboxamide]
≥ 8.30	≥ 8.30	< 7.00	COCc1c(Br)cc(C(=O)Nc2ccc(-c3cc(C4CCN(C(=O)C(C)C)CC4)n4ncnc(N)c34)cc2)c(=O)n1-c1ccccc1 [Example 136, N-(4-(4-Amino-7-(1-isobutyrylpiperidin-4-yl)pyrrolo[2,1-f][1,2,4]triazin-5-yl)phenyl)-5-bromo-6-(methoxymethyl)-2-oxo-1-phenyl-1,2-dihydropyridine-3-carboxamide]
≥ 8.30	≥ 8.30	< 7.00	CC(C)C(=O)N1CCC(c2cc(-c3ccc(NC(=O)c4cn(C5CC5)c(=O)n(-c5ccccc5)c4=O)cc3)c3c(N)ncnn23)CC1 [Example 139, N-(4-(4-Amino-7-(1-isobutyrylpiperidin-4-yl)pyrrolo[2,1-f][1,2,4]triazin-5-yl)phenyl)-1-cyclopropyl-2,4-dioxo-3-phenyl-1,2,3,4-tetrahydropyrimidine-5-carboxamide]
